The values that follow are results of earlier work, collected in US20100143460A1, “SOLID DOSAGE FORMS COMPRISING ALISKIREN AND PHARMACEUTICALLY ACCEPTABLE SALTS THEREOF” (KRKA, TOVARNA ZDRAVIL, D.D., NOVO MESTO, priority 2007, published 2010).

Molecules are shown by their SMILES.

For the data set the following is noted: described in EP-A-1 517 682.

In the case of `COCCCOc1cc(C[C@@H](C[C@H](N)[C@@H](O)C[C@H](C(=O)NCC(C)(C)C(N)=O)C(C)C)C(C)C)ccc1OC` [aliskiren], the solubility in water result is reported as “very readily soluble in water”.
